Reference: ChEMBL document CHEMBL1201862, “PubChem BioAssay data set” (2004)
Activity calls are given as the source filed them.

Legend:
Protein skinhead-1 = biological target: T1, Protein skinhead-1 (Caenorhabditis elegans, UniProt P34707); format: functional
T1 sequence (P34707 whole entry): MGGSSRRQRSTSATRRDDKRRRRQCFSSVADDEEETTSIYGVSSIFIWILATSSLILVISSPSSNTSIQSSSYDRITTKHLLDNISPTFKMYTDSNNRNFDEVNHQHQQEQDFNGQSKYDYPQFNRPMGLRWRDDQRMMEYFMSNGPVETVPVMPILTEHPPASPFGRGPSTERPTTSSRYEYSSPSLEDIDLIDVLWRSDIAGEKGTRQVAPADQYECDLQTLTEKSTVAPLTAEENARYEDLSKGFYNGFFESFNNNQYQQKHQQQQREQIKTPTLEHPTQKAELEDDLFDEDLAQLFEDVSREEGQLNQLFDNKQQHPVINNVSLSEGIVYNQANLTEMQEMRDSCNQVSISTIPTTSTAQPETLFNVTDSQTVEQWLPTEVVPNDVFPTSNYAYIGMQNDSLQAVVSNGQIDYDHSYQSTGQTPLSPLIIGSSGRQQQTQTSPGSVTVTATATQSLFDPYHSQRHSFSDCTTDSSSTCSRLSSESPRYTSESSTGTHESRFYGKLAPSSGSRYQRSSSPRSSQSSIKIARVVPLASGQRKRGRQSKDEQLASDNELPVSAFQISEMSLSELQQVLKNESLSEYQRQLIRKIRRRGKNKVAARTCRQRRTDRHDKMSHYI

Cytochrome P450 2C19 = Cytochrome P450 2C19 (Homo sapiens, UniProt P33261); experiment: Cytochrome panel assay with activity outcomes. Panel member name: p450-cyp2c19 Compounds with AC50 equal or less than 10 uM are considered active; format: functional; settings: read-out: AC50
Fatty acid synthase [1] = biological target: T2, Fatty acid synthase (Homo sapiens, UniProt P49327); experiment: FAS thioesterase domain inhibitors, dose response, biochemical, endpoint fluorescence intensity, uHTS hits (AID 624327); format: functional;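 further: fluorescence from hydrolysis of an O-methyl fluorescein acyl ester substrate by the enzyme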
Fatty acid synthase [2] = biological target: T2, Fatty acid synthase; experiment: FAS thioesterase domain inhibitors, dose response, biochemical, kinetic fluorescence intensity (AID 624326); format: functional;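 further: rate of fluorescence rise from hydrolysis of a fluorogenic O-methyl fluorescein ester substrate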
[3] = microbe, parasite or virus in culture; format: functional; settings: Mycobacterium tuberculosis
Vero = experiment: cells; format: functional; settings: Chlorocebus sabaeus
[4] = Shn3 3'UTR reporter inhibitors, dose response, cell-based, Clone20 osteoblasts, firefly luciferase, cherry-picked (AID 624132); format: functional;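 further: firefly luciferase luminescence from reporter carrying the Shn3 3'UTR in osteoblasts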
[5] = HepG2 cell cytotoxicity, dose response, cytotoxicity control for Shn3 inhibitor project, CellTiter-Glo, cherry-picked (AID 624134); format: functional, cell-based
[6] = control 3'UTR Renilla luciferase suppression, dose response, counter-screen for Shn3 inhibitor project, cell-based, Clone20-Shn3RL, cherry-picked (AID 624133); format: functional
[7] = inhibitors of HIV Env-driven cell fusion, dose response, cherry-pick (AID 652057); format: functional, cell-based
[8] = ZM109 Env clade C HIV-1 fusion inhibitors, dose response, HeLa effector, CEM target cells, luciferase, cherry-pick (AID 652058); format: functional, cell-based
[9] = inhibitors of clade B AD8 Env fusion, dose response, cell-based, cherry-pick (AID 652062); format: functional;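 further: luciferase signal from cell-cell fusion driven by HIV-1 clade B AD8 Env; potency is for inhibitors of fusion seen as a drop in luminescence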
[10] = growth suppression of PTEN-null colon cells, dose response, cell-based, HCT116 PTEN knockout (AID 1047); format: functional;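 further: HCT116 colon tumor cells with PTEN knocked out; cells exposed to compound for 60 hours before readout; potency for loss of cell viability measured by luminescence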
[11] = growth suppression of beta-catenin-knockout colon cells, dose response, cell-based, HCT116, human colon tumor (AID 1045); format: functional;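 further: HCT116 colon tumor cells with beta catenin knocked out; cells exposed to compound for 60 hours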
[12] = biological target: T3, Replicative DNA helicase DnaB (Mycobacterium tuberculosis, UniProt P9WMR3); experiment: DnaB intein splicing inhibitors, dose response, biochemical, cell-free fluorescence (AID 449749); format: functional
T3 sequence (P9WMR3 whole entry): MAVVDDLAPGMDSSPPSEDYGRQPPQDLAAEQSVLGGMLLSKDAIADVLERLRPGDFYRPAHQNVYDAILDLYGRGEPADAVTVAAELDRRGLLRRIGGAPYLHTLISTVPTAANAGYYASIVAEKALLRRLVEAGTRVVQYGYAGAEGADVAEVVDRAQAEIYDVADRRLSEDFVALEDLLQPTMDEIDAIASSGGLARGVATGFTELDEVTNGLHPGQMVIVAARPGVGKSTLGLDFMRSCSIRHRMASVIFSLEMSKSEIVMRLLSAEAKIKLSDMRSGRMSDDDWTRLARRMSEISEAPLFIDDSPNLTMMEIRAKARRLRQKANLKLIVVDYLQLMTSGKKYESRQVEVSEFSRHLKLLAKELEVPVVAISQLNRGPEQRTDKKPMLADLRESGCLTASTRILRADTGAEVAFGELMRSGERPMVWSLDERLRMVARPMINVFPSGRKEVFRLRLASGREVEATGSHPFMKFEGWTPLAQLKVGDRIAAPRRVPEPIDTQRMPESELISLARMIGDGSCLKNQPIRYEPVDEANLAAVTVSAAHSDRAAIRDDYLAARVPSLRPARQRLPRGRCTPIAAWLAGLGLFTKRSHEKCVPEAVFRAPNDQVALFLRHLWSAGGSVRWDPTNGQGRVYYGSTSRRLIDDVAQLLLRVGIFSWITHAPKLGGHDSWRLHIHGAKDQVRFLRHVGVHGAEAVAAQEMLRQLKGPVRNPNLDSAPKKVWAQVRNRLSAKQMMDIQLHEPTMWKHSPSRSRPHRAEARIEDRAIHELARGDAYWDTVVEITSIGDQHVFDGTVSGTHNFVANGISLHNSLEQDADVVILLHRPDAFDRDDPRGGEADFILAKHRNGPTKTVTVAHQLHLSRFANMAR

Protein RecA = biological target: T4, Protein RecA (Mycobacterium tuberculosis, UniProt P9WHJ3); experiment: Fluorescence Cell-Free Homogeneous Dose Retest to Identify Inhibitors of RecA-Intein Splicing Activity. [Related pubchem assays (depositor defined):AID2097, AID2223, AID489010, AID492950]; format: functional
T4 sequence (P9WHJ3 whole entry): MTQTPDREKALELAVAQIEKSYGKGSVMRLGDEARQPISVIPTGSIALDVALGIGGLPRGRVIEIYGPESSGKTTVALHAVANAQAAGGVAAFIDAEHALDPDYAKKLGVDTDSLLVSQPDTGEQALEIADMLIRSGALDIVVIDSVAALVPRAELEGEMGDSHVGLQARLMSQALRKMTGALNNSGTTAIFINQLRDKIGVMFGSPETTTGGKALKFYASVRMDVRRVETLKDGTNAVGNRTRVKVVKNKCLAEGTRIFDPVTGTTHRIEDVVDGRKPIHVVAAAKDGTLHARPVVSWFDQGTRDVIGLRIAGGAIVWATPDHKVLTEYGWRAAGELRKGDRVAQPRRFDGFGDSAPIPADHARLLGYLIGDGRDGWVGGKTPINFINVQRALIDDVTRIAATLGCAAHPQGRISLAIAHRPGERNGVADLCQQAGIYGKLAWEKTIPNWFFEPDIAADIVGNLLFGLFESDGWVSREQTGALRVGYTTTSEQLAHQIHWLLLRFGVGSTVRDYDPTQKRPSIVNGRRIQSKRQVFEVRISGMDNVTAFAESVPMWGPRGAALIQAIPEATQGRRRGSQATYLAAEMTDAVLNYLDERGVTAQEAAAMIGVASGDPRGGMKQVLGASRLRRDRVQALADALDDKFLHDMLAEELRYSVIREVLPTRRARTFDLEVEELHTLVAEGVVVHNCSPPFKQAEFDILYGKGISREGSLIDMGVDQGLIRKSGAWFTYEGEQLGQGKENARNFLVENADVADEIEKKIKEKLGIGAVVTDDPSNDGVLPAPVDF

T2 sequence (P49327 whole entry, the tested form may be a part): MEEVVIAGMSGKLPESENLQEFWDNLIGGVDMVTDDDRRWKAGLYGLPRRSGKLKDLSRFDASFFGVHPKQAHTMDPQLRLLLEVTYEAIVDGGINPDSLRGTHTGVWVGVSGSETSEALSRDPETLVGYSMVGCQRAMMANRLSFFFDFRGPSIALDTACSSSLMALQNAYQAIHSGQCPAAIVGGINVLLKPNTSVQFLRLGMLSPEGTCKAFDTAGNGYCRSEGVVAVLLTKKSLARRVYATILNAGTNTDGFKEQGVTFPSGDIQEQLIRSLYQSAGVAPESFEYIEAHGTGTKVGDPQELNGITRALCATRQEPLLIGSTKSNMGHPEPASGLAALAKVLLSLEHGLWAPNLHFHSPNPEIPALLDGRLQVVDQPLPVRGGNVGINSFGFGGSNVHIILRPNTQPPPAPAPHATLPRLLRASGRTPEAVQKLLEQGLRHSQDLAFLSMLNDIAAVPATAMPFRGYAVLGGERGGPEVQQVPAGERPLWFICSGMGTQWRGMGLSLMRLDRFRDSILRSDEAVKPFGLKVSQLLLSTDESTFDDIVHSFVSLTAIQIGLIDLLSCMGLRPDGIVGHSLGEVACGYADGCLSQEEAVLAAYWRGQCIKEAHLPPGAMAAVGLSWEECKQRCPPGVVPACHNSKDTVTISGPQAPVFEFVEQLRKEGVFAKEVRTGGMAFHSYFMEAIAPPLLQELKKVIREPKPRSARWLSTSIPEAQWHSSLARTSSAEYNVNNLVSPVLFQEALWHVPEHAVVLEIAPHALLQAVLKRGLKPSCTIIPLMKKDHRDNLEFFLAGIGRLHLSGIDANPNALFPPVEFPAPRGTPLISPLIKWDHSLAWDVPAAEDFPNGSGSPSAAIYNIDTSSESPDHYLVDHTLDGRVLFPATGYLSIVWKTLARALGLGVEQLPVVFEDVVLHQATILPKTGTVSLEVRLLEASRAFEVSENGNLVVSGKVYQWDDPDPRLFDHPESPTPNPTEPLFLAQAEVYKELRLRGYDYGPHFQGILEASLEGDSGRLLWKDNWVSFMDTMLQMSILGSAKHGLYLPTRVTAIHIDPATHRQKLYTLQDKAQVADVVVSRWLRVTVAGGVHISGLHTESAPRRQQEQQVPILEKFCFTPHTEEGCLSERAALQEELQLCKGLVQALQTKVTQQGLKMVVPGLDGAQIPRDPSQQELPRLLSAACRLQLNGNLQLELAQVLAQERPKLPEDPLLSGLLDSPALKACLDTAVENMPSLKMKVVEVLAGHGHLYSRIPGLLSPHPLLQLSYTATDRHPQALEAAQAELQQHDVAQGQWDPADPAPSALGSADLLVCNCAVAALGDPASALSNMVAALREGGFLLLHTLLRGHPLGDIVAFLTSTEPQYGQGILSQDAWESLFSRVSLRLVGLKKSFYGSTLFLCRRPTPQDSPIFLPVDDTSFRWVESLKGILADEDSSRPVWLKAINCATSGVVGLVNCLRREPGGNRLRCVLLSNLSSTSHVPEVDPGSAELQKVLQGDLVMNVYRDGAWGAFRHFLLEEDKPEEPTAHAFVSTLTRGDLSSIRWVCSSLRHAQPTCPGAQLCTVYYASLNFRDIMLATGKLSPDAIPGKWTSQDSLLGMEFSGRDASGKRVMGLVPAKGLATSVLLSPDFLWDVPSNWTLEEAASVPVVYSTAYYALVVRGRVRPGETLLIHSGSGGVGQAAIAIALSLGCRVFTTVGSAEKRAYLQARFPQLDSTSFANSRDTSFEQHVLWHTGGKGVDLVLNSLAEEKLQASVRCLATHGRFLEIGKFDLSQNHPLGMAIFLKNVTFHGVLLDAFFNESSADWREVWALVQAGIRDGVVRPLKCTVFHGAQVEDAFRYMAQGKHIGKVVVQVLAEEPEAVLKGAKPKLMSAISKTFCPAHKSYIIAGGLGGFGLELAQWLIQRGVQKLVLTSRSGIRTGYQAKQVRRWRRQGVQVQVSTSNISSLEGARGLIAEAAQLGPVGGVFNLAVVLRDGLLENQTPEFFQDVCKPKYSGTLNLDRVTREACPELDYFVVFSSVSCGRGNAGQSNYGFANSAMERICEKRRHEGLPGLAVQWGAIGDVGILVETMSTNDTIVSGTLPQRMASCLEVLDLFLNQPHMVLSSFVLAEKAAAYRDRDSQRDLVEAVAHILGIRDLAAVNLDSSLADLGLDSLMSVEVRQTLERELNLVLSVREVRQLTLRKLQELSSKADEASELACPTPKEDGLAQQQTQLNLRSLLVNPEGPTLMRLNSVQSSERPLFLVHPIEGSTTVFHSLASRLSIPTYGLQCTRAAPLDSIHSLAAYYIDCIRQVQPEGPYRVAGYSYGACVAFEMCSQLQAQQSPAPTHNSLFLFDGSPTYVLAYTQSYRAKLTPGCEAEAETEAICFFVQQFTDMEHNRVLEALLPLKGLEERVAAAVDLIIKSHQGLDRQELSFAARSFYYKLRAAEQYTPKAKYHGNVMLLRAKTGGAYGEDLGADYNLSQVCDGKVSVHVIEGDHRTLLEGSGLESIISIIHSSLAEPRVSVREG
Chain of Cytochrome P450 2C19 (P33261 whole entry, the tested form may be a part): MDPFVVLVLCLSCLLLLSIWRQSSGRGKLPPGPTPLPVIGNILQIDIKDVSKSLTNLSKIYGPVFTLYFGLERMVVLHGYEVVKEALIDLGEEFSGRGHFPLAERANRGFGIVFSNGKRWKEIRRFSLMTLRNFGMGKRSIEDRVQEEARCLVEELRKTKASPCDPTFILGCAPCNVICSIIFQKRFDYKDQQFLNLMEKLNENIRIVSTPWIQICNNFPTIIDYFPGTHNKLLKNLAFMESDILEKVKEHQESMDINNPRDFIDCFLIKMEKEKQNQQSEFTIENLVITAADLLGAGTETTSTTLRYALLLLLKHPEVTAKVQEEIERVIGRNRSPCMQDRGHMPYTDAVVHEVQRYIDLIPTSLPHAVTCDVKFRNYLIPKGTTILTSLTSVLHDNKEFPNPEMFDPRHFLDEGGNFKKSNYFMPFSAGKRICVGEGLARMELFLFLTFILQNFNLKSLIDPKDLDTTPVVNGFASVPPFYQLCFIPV

## CC(=O)Nc1sc(/C(C#N)=C\c2cccc(Cl)c2)nc1-c1ccc(C)cc1
Protein skinhead-1
  IC50: > 100 µM (inactive)

## Clc1ccc2oc(-c3cccnc3)nc2c1
Cytochrome P450 2C19
  AC50: 14.1 µM (inconclusive)
Protein skinhead-1
  IC50: 29 µM (active)

## COc1cccc(-n2c(CN3CCN(c4ccccn4)CC3)nc3ccc([N+](=O)[O-])cc3c2=O)c1
Fatty acid synthase [1]
  IC50: 3.23 µM (active)
Fatty acid synthase [2]
  IC50: 3.67 µM (active)

## O=[N+]([O-])c1ccc(C2CC(c3ccccc3)=Nc3ccccc3S2)cc1 (centres undefined)
[3]
  CC50: 37.4 µM (active)

## O=C(Nc1ccc(C2CC2(Cl)Cl)cc1)c1ccccc1Br (centres undefined)
Protein skinhead-1
  IC50: 70 µM (inactive)

## CC(C)C[C@H]1CN([C@@H](CC(C)C)CN2CCCC2CN2C(=S)NC[C@@H]2Cc2ccc(O)cc2)C(=S)N1CC1CCCCCC1 (some centres undefined)
Vero
  CC50: 20.9 µM (active)

## Cc1ccc(OCCNC(=O)CNC(=O)c2ccc(Cl)c([N+](=O)[O-])c2)cc1
Fatty acid synthase [1]
  IC50: 8.99 µM (active)
Fatty acid synthase [2]
  IC50: 9.71 µM (active)

## O=C(CN1CCCC1c1cccs1)Nc1cc(S(=O)(=O)N2CCCCC2)ccc1Cl (centres undefined)
[4]
  AC50: 14.4 µM (active)
[5]
  AC50: 60.5 µM (active)
[6]
  AC50: 6.82 µM (active)

## Cn1nc(C(C)(C)C)cc1C(=O)N1CCCCC1c1cc(C(=O)Nc2cccc3c2CCCC3)no1 (centres undefined)
[4]
  AC50: 10.2 µM (active)
[5]
  AC50: 62.8 µM (active)
[6]
  AC50: 16.5 µM (active)

## COC(=O)C1=C(c2ccc(OCc3ccccc3)cc2)C[C@@H]2CC[C@H]1N2C(=O)NCc1ccc(C(C)(C)C)cc1
[4]
  AC50: 6.84 µM (active)
[5]
  AC50: > 70 µM (inactive)
[6]
  AC50: 1.63 µM (active)

## O=C(Nc1cccc(C(=O)O)c1)/C(=C\c1cccc([N+](=O)[O-])c1)NC(=O)c1ccc(Br)cc1
Fatty acid synthase [1]
  IC50: 4.62 µM (active)
Fatty acid synthase [2]
  IC50: 5.19 µM (active)

## O=C(C[C@H]1C=C[C@@H](NC(=O)Nc2ccccc2F)[C@@H](CO)O1)NCc1ccc(-c2ccccc2)cc1
[7]
  AC50: < 0.26 µM (active)
[8]
  AC50: < 0.26 µM (active)
[9]
  AC50: < 0.26 µM (active)

## Cc1ccc(S(=O)(=O)Nc2ccc3c(c2)CC(=O)N([C@@H](C)CO)C[C@H](C)[C@H](CN(C)S(=O)(=O)c2ccccc2)O3)cc1
[7]
  AC50: 14.7 µM (active)
[8]
  AC50: 15.5 µM (active)
[9]
  AC50: 34.2 µM (active)

## C[C@H](CO)N1C[C@H](C)[C@H](CN(C)S(=O)(=O)c2ccccc2)Oc2ccc(NC(=O)Cn3cnnn3)cc2CC1=O
[7]
  AC50: 13.5 µM (active)
[8]
  AC50: 2.07 µM (active)
[9]
  AC50: 20.3 µM (active)

## Clc1ccc(Sc2oc(/C=N/n3cnnc3)cc2Br)cc1
[10]
  EC50: 15.2 µM (active)
[11]
  EC50: 43.8 µM (active)
[12]
  AC50: 2 µM (active)
Protein RecA
  EC50: 8.65 µM (active)
